Holding throughout (assay type): cell-based
One assay addresses T1, M2 (Homo sapiens, UniProt P08172).
T1 sequence (P08172 1-466): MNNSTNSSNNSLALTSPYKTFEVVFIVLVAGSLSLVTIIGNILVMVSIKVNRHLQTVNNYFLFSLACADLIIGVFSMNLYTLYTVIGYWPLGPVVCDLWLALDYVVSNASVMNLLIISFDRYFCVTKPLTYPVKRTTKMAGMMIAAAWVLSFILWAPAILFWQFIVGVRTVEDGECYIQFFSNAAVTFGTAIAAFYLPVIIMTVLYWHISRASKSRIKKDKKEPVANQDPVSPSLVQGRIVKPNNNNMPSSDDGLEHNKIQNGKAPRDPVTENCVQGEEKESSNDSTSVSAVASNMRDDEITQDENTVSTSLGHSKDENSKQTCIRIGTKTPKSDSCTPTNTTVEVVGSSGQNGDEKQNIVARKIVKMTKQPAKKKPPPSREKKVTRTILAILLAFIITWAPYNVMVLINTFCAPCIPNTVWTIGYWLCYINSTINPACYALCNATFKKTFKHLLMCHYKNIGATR
The assay can be described thus: In vitro functional assay of muscarinic acetylcholine receptor activity, M2.

Another assay deals with M3 (Homo sapiens, UniProt P20309). As to the kind of experiment: In vitro functional assay of muscarinic acetylcholine receptor activity, M3.
A further assay concerns the target T2, human M1 receptor (Homo sapiens, UniProt P11229).
T2 sequence (P11229 1-460): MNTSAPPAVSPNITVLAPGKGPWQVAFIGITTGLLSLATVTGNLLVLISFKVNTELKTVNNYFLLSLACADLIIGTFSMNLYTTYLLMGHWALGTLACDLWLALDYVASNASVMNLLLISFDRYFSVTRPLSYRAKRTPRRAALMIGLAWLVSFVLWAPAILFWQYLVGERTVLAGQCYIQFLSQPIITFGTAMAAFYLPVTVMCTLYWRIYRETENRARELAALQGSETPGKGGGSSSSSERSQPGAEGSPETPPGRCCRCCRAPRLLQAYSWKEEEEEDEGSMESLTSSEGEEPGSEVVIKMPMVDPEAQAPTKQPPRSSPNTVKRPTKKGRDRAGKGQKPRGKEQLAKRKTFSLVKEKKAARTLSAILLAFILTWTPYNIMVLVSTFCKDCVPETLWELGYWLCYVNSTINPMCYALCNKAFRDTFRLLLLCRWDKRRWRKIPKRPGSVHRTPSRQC
As to the kind of experiment: In vitro functional assay of muscarinic acetylcholine receptor activity (aequorin calcium flux, antagonist mode vs EC80 acetylcholine), M1. A digest of the protocol: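 CHO-K1 cells stably co-expressing human M1 and aequorin were loaded with 5 uM coelenterazine h for 4 h at room temperature in the dark. IC50 came from the drop in luminescence.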
A general note: Calcium assays in cells follow changes in intracellular calcium, usually with a dye or a luminescent sensor.

[1] abbreviates: antagonist IC50 at M3, read-out: M3 IC50.
The mark [2] stands for this setting: antagonist IC50 at M2, read-out: M2 IC50.
Where [3] appears, read: CHO-K1 cells stably expressing human M1 receptor with Aequorin, decrease in EC80 acetylcholine response, read-out: M1 IC50.

Where two headings read alike, the source gives them in different places.

These results are taken from patent US11512090B2, “Muscarinic acetylcholine M1 receptor antagonists” (PIPELINE THERAPEUTICS, INC., priority 2018, dated 2022).

Sequence of M3 (P20309 whole entry): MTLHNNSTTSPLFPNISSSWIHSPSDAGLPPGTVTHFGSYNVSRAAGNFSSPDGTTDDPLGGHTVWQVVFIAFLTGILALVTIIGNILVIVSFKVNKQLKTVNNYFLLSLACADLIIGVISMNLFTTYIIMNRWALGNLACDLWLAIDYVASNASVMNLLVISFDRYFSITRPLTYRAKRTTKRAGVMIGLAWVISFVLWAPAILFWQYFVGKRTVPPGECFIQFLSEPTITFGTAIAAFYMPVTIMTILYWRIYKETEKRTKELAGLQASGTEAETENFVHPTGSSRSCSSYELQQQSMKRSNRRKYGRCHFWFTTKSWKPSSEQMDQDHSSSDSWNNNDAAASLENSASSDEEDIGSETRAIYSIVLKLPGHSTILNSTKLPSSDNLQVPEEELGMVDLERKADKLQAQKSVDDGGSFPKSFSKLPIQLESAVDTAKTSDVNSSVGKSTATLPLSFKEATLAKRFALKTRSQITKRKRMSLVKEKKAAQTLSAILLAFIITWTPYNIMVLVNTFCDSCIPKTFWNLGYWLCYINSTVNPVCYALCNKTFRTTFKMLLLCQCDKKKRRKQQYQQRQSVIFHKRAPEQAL

By IC50 is commonly meant the point on the concentration scale where inhibition reaches its midpoint. For the compound `N#Cc1ccc(N2C3CCC2CN(C(=O)COCCc2cccc4nccnc24)C3)nc1` [Example 43, 6-(3-{2-[2-(quinoxalin-5-yl)ethoxy]acetyl}-3,8-diazabicyclo[3.2.1]octan-8-yl)pyridine-3-carbonitrile], the IC50 is 1 to 10 µM on M2, greater than 10 µM against M3 and 0.1 to 1 µM on human M1 receptor.

With `N#Cc1ccc(N2C3CCC2CN(C(=O)CCCCc2cccc4ncsc24)C3)nc1` [Example 44, 6-{3-[5-(1,3-benzothiazol-7-yl)pentanoyl]-3,8-diazabicyclo[3.2.1]octan-8-yl}pyridine-3-carbonitrile], the IC50 against M2 was 0.1 to 1 µM; on M3 (setting [1]), 1 to 10 µM; on human M1 receptor it was less than 0.1 µM.

Regarding `N#Cc1ccc(N2[C@@H]3CC[C@H]2CN(C(=O)[C@H]2C[C@H](Nc4cccc5ncccc45)C2)C3)nc1` [Example 45, 6-(3-{3-[(quinolin-5-yl)amino]cyclobutanecarbonyl}-3,8-diazabicyclo[3.2.1]octan-8-yl)pyridine-3-carbonitrile], the half-inhibitory concentration (IC50) at M2 (setting [2]) is 1 to 10 µM; on M3 (setting [1]), greater than 10 µM; on human M1 receptor it was 0.1 to 1 µM.

Take `N#Cc1ccc(N2C3CCC2CN(C(=O)N2CC(=Cc4cccc5ncccc45)C2)C3)nc1` [Example 46, 6-(3-{3-[(quinolin-5-yl)methylidene]azetidine-1-carbonyl}-3,8-diazabicyclo-[3.2.1]octan-8-yl)pyridine-3-carbonitrile]: the figures for the IC50 at M2 (setting [2]), on M3 (setting [1]) and at human M1 receptor were 1 to 10 µM, 1 to 10 µM and 0.1 to 1 µM, respectively.

As for `O=C(COCc1cccc2cnccc12)N1C[C@H]2CC[C@@H](C1)N2c1ccc(F)cn1` [Example 47, 1-((1R,5S)-8-(5-fluoropyridin-2-yl)-3,8-diazabicyclo[3.2.1]octan-3-yl)-2-(isoquinolin-5-ylmethoxy)ethan-1-one], the 50% inhibitory concentration (IC50) on M2 (setting [2]) was 1 to 10 µM; at M3 (setting [1]) it was greater than 10 µM; on human M1 receptor (setting [3]), 1 to 10 µM.

For the compound `O=C(CCOCc1cccc2ncccc12)N1C[C@H]2CC[C@@H](C1)N2c1ccc(F)cn1` [Example 48, 1-((1R,5S)-8-(5-fluoropyridin-2-yl)-3,8-diazabicyclo[3.2.1]octan-3-yl)-3-(quinolin-5-ylmethoxy)propan-1-one], the half-maximal inhibitory concentration (IC50) on M2 (setting [2]) is 1 to 10 µM; at M3 (setting [1]), greater than 10 µM; at human M1 receptor it was 0.1 to 1 µM.

In the case of `O=C(CCOCc1cccc2cnccc12)N1C[C@H]2CC[C@@H](C1)N2c1ccc(F)cn1` [Example 49, 1-((1R,5S)-8-(5-fluoropyridin-2-yl)-3,8-diazabicyclo[3.2.1]octan-3-yl)-3-(isoquinolin-5-ylmethoxy)propan-1-one], the IC50 at M2 (setting [2]) is 1 to 10 µM; at M3 (setting [1]), greater than 10 µM; at human M1 receptor, 0.1 to 1 µM.

Turning to `O=C(N1CC(Oc2cccc3ncccc23)C1)N1C[C@H]2CC[C@@H](C1)N2c1ccc(F)cn1` [Example 50, ((1R,5S)-8-(5-fluoropyridin-2-yl)-3,8-diazabicyclo[3.2.1]octan-3-yl)(3-(quinolin-5-yloxy)azetidin-1-yl)methanone], the IC50 was 1 to 10 µM on M2 (setting [2]), greater than 10 µM on M3 (setting [1]) and 1 to 10 µM on human M1 receptor (setting [3]).

For the compound `Cc1cc(F)cnc1N1[C@@H]2CC[C@H]1CN(C(=O)CCCc1cccc3ncccc13)C2` [Example 52, 1-((1R,5S)-8-(5-fluoro-3-methylpyridin-2-yl)-3,8-diazabicyclo[3.2.1]octan-3-yl)-4-(quinolin-5-yl)butan-1-one], the IC50 lay in the range of 0.1 to 1 µM against M2, 1 to 10 µM at M3 (setting [1]) and 0.1 to 1 µM on human M1 receptor.

On to `Cc1cc(F)cnc1N1CCN(C(=O)CCCc2cccc3ncccc23)CC1` [Example 55, 1-(4-(5-fluoro-3-methylpyridin-2-yl)piperazin-1-yl)-4-(quinolin-5-yl)butan-1-one], for which the concentration for half-maximal inhibition (IC50) on M2 (setting [2]) is 0.1 to 1 µM; on M3 (setting [1]), 1 to 10 µM; at human M1 receptor (setting [3]), less than 0.1 µM.

As for `CC1CN(c2ccncc2)CCN1C(=O)CCCc1cccc2ncccc12` (stereo not drawn) [Example 56, 1-(2-methyl-4-(pyridin-4-yl)piperazin-1-yl)-4-(quinolin-5-yl)butan-1-one], the IC50 lay in the range of 0.1 to 1 µM at M2 (setting [2]), 1 to 10 µM at M3 (setting [1]) and 0.1 to 1 µM at human M1 receptor (setting [3]).
